Like-named read-outs stand apart in the source and are kept apart here.
Columns and labels:
[1] = target: 5-HT transporter (Homo sapiens, UniProt P31645); experiment: Binding affinity for 5-HT transporter
[2] = target: 5-HT1b (Homo sapiens, UniProt P28222); experiment: Binding affinity for serotonin subtype 5-HT1b
[3] = target: 5-HT4 (Homo sapiens, UniProt Q13639); experiment: Binding affinity for serotonin subtype 5-HT4
[4] = target: D2 dopaminergic (Homo sapiens, UniProt P14416); experiment: Receptor panel binding: D2 dopaminergic
Chain of D2 dopaminergic (P14416 whole entry): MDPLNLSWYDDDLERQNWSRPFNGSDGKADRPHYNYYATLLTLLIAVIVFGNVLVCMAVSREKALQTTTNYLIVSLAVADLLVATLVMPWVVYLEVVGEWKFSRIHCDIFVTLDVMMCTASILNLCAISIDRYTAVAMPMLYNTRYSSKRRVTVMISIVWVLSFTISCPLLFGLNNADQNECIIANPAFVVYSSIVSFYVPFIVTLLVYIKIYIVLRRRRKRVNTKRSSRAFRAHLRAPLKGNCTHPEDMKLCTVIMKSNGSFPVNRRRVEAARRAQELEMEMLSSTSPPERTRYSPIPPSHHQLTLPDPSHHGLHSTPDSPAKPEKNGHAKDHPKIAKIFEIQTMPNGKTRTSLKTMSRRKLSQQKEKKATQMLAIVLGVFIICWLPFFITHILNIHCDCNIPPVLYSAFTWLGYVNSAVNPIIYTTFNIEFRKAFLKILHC

[5] = target: T1, 5-HT1a (Homo sapiens, UniProt P08908); experiment: Binding affinity for serotonin subtype 5-HT1a
T1 sequence (P08908 1-422): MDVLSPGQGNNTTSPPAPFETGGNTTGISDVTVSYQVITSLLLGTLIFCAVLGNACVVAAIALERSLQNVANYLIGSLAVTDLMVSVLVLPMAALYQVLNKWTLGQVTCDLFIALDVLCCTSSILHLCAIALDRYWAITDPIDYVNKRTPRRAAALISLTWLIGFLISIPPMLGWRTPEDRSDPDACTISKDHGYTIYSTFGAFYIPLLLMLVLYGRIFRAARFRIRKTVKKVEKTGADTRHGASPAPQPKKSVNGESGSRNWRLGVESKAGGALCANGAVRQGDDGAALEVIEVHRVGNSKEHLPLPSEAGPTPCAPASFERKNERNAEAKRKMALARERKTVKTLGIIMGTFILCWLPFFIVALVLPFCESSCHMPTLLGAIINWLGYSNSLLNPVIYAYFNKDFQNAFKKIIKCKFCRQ

[6] = target: DA transporter (Homo sapiens, UniProt Q01959); experiment: Receptor panel binding: DA transporter
[7] = target: V2 of vasopressin (Homo sapiens, UniProt P30518); experiment: Receptor panel binding: vasopressin V2
Chain of V2 of vasopressin (P30518 whole entry): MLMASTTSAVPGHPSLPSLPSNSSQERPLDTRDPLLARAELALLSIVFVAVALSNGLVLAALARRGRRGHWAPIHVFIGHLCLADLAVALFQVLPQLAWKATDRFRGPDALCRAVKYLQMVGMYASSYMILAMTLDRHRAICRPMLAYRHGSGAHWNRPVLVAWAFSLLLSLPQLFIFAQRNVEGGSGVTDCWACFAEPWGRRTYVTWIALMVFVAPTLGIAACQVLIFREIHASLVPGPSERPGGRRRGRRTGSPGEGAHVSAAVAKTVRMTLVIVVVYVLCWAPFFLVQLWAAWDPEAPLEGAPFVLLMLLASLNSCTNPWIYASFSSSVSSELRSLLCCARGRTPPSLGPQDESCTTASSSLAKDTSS

[8] = target: alpha1a adrenergic (Homo sapiens, UniProt P35348); experiment: Receptor panel binding: alpha1a adrenergic
[9] = target: D3 dopaminergic (Homo sapiens, UniProt P35462); experiment: Receptor panel binding: D3 dopaminergic
[10] = target: H1 histaminergic (Homo sapiens, UniProt P35367); experiment: Receptor panel binding: H1 histaminergic
Chain of H1 histaminergic (P35367 whole entry): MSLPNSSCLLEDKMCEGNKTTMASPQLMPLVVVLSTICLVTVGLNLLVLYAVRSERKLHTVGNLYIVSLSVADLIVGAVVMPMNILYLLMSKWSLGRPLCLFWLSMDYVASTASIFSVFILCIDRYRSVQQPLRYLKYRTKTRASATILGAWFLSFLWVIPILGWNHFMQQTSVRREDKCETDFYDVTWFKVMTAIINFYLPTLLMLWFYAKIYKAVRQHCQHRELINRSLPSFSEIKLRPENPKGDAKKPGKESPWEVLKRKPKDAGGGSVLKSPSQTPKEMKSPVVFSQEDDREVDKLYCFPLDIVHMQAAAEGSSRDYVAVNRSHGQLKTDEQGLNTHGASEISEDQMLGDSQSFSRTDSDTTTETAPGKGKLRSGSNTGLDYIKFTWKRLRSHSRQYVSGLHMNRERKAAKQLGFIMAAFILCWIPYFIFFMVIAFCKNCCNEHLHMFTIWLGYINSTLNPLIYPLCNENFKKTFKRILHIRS

[11] = target: 5-HT2b (Homo sapiens, UniProt P41595); experiment: Binding affinity for serotonin subtype 5-HT2b
[12] = target: D5 dopaminergic (Homo sapiens, UniProt P21918); experiment: Receptor panel binding: D5 dopaminergic
[13] = target: NA transporter (Homo sapiens, UniProt P23975); experiment: Receptor panel binding: NA transporter
Chain of NA transporter (P23975 whole entry): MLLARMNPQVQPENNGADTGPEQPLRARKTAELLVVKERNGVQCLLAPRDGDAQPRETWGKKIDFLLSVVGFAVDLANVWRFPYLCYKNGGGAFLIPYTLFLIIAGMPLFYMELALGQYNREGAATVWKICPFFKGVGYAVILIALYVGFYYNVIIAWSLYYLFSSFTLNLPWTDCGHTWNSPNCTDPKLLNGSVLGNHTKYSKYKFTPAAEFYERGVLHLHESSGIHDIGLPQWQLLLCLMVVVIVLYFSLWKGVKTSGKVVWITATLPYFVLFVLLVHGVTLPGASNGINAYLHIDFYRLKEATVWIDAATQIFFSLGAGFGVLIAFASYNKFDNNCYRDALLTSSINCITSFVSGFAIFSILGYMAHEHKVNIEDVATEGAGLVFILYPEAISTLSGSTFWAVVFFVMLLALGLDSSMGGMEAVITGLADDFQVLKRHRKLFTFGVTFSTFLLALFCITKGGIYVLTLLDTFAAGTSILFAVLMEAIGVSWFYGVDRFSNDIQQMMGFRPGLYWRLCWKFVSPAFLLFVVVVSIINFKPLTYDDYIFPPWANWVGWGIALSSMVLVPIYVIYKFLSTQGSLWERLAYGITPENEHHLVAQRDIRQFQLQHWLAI

[14] = target: T2, 5-HT3 (Homo sapiens, UniProt P46098); experiment: Binding affinity for serotonin subtype 5-HT3
T2 sequence (P46098 24-478): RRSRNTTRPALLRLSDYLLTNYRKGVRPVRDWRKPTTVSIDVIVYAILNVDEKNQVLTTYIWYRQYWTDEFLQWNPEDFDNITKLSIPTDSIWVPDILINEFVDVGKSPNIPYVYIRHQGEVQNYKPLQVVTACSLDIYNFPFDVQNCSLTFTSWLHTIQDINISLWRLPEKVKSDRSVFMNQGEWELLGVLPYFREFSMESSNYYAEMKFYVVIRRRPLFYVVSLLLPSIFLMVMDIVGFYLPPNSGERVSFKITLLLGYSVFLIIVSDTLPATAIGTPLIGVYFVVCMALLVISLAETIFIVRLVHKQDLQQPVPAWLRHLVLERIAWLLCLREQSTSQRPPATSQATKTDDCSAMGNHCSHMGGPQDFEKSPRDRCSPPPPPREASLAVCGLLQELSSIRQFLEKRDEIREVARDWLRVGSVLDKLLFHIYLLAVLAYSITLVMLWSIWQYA

[15] = target: T3, alpha1b adrenergic receptor (Homo sapiens, UniProt P35368); experiment: Receptor panel binding: alpha1b adrenergic; conditions: for interaction capability for alpha1b receptors lower than for 5-HT6 receptor: alpha1b versus 5-HT6
T3 sequence (P35368 1-520): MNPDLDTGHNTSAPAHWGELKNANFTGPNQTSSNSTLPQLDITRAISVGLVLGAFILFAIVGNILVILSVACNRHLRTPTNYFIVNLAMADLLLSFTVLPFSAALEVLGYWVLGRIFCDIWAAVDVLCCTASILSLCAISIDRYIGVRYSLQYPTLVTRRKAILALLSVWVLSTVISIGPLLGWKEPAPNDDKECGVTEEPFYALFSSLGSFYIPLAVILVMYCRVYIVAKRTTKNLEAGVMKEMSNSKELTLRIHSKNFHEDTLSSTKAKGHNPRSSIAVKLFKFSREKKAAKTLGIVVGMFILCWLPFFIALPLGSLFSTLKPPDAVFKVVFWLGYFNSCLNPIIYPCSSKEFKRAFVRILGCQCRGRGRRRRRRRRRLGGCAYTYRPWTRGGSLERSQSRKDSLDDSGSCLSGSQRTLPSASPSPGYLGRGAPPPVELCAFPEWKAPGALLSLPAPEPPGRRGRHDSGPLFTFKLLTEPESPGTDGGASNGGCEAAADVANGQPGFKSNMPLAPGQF

[16] = target: V1b of vasopressin (Homo sapiens, UniProt P47901); experiment: Receptor panel binding: vasopressin V1b
[17] = target: 5-HT1d (Homo sapiens, UniProt P28221); experiment: Binding affinity for serotonin subtype 5-HT1d
[18] = target: 5-HT5a (Homo sapiens, UniProt P47898); experiment: Binding affinity for serotonin subtype 5-HT5a
Chain of 5-HT5a (P47898 whole entry, species assumed): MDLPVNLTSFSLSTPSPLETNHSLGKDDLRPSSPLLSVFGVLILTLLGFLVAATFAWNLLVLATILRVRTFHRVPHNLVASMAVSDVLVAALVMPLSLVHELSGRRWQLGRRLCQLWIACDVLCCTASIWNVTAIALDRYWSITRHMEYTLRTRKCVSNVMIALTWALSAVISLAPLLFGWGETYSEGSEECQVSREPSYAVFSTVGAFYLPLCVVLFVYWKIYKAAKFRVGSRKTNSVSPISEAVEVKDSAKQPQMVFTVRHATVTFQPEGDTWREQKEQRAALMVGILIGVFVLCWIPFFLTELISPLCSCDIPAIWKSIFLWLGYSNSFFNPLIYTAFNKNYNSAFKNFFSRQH

[19] = target: T4, 5-HT2c (Homo sapiens, UniProt P28335); experiment: Binding affinity for serotonin subtype 5-HT2c
T4 sequence (P28335 33-458): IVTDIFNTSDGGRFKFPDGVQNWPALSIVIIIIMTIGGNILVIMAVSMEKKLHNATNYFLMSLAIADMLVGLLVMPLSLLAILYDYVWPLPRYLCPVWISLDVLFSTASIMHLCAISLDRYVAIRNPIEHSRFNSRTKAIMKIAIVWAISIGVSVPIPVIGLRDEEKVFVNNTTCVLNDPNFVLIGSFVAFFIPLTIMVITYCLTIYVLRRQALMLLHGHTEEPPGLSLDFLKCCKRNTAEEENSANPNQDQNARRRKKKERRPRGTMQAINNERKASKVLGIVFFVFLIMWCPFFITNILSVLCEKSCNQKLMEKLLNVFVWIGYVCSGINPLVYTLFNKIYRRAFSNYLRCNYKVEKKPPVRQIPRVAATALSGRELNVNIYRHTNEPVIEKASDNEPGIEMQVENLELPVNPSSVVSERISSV

[20] = target: beta1 adrenergic (Homo sapiens, UniProt P08588); experiment: Receptor panel binding: beta1 adrenergic
[21] = target: T5, rat 5-HT6 stably transfected to HEK293 (Rattus norvegicus, UniProt P31388); experiment: 5-HT6 receptor binding, [3H]-LSD displacement; conditions: for selectivity of binding for 5-HT6 receptor (in words): over other serotonin sites and other neurotransmitter receptors
T5 construct: expressed in transfected cells; host or cells: HEK293
T5 sequence (P31388 whole entry): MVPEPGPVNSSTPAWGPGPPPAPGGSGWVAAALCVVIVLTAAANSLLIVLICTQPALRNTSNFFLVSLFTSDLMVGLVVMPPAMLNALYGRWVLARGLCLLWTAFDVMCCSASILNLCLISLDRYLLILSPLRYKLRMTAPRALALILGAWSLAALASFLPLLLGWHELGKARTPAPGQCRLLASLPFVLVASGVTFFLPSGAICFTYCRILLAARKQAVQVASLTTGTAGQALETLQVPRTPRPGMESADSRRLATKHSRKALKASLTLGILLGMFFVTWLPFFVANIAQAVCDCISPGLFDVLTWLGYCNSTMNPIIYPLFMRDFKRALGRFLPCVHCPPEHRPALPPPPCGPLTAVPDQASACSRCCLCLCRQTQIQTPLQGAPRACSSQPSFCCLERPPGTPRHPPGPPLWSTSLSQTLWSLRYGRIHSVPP

[22] = target: V1a of vasopressin (Homo sapiens, UniProt P37288); experiment: Receptor panel binding: vasopressin V1a
[23] = target: T6, D4,4 dopaminergic (Homo sapiens, UniProt P21917); experiment: Receptor panel binding: D4,4 dopaminergic
T6 sequence (P21917 1-419): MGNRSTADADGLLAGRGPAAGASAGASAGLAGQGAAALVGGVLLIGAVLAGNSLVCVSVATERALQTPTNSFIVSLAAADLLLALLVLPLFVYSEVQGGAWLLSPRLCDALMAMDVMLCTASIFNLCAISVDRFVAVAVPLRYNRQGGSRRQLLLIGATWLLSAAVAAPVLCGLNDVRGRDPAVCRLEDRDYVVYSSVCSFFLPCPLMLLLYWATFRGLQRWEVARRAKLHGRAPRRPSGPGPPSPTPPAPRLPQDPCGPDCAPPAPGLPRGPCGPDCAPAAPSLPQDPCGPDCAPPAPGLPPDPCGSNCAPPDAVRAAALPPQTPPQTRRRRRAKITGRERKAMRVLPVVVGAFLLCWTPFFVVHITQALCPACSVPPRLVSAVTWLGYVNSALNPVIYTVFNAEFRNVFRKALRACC

[24] = target: T7, human 5-HT7 receptor stably transfected to CHO cells (Homo sapiens, UniProt P34969); experiment: 5-HT7 receptor binding, [3H]-LSD displacement
T7 construct: expressed in transfected cells; host or cells: CHO
T7 sequence (P34969 whole entry): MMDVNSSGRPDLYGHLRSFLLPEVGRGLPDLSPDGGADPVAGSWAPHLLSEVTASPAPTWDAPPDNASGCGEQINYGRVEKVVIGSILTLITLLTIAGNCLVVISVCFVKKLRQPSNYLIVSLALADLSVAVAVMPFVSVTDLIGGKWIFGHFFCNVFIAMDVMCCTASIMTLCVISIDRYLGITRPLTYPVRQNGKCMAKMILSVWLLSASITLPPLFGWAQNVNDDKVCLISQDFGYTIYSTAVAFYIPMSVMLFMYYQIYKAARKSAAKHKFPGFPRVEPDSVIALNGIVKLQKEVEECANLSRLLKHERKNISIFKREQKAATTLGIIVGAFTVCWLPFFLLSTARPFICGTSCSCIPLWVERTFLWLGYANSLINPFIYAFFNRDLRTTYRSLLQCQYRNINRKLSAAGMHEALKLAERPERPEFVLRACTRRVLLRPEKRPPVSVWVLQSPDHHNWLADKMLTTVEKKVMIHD

[25] = target: D1 dopaminergic (Homo sapiens, UniProt P21728); experiment: Receptor panel binding: D1 dopaminergic
Chain of D1 dopaminergic (P21728 whole entry): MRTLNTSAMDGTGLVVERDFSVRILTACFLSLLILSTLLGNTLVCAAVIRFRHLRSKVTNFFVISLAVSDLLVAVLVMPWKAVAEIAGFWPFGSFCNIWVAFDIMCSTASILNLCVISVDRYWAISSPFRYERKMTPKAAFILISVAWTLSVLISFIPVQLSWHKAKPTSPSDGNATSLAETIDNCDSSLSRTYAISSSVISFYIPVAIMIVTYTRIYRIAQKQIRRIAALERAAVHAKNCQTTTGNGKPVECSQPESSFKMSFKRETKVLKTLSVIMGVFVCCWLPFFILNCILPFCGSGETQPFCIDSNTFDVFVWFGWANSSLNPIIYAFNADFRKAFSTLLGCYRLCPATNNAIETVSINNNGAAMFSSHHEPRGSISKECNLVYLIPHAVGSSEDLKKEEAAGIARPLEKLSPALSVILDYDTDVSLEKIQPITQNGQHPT

[26] = target: muscarinic (non-selective); experiment: Receptor panel binding: muscarinic; conditions: read-out: affinity value, muscarinic (non-selective)
[27] = target: opiate (non-selective); experiment: Receptor panel binding: opiate; conditions: read-out: affinity value, opiate (non-selective)
[28] = target: PCP; experiment: Receptor panel binding: PCP; conditions: read-out: affinity (Ki), PCP
[29] = target: nicotinic receptors; experiment: Receptor panel binding: nicotinic receptors; conditions: read-out: affinity (Ki), nicotinic receptors
[30] = target: vasopressin V1; experiment: Receptor panel binding: vasopressin V1; conditions: read-out: affinity (Ki), vasopressin V1
[31] = target: 5-HT2a (Homo sapiens, UniProt P28223); experiment: biochemical; type: binding
[32] = target: NMDA; experiment: Receptor panel binding: NMDA; conditions: read-out: affinity value, NMDA

Chain of 5-HT transporter (P31645 whole entry): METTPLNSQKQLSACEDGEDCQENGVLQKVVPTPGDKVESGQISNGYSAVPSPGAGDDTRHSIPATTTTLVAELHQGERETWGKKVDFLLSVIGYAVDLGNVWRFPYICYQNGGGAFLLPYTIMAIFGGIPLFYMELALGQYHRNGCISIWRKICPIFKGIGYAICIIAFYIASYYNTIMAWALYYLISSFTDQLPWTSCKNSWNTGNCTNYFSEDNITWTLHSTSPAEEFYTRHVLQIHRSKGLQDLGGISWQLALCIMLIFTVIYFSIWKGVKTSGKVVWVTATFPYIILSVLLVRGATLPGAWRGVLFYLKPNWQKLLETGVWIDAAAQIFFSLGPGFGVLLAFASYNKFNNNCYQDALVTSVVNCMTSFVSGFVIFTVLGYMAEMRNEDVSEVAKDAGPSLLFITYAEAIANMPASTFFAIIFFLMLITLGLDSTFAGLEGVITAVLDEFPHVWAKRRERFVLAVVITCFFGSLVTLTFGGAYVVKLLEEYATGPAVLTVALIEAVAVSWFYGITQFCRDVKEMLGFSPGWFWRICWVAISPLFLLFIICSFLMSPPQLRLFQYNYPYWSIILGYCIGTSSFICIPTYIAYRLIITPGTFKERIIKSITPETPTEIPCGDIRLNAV
Chain of 5-HT1b (P28222 whole entry, species assumed): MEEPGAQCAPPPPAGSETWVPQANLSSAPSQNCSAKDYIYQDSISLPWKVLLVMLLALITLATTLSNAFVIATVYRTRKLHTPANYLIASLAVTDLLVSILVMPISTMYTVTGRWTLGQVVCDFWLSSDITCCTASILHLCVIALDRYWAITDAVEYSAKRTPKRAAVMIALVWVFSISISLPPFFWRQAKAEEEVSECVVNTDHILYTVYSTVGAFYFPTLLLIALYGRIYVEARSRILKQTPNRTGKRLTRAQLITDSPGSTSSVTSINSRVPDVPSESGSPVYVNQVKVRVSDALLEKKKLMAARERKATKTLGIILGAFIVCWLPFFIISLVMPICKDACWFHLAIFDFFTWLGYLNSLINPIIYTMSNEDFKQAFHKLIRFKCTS

| SMILES | Ki [1] | Ki [2] | Ki [3] | Ki [4] | Ki [5] | Ki [6] | Ki [7] | Ki [9] | Ki [10] | Ki [11] | Ki [12] | Ki [13] | Ki [14] | Ki [17] | Ki [18] | Ki [19] | melting point | 5-HT6 binding affinity compared with Serotonin (in words) [21] | IC50 [21] | Ki [21] | also measured |
| --- | --- | --- | --- | --- | --- | --- | --- | --- | --- | --- | --- | --- | --- | --- | --- | --- | --- | --- | --- | --- | --- |
| Cc1[nH]c2ccc(Cl)cc2c1CCN(C)C [ST 1936, 5-chloro-2-methyl-N,N-dimethyltryptamine] | > 1000 nM | > 1000 nM | > 1000 nM | ≥ 1000 nM | > 1000 nM | ≥ 1000 nM | ≥ 1000 nM | ≥ 1000 nM | ≥ 1000 nM | > 1000 nM | ≥ 1000 nM | ≥ 1000 nM | > 1000 nM | > 1000 nM | > 1000 nM | > 1000 nM | 126 to 127 °C | greater than that observed for Serotonin | 62 nM | 31 nM | Ki [8]: ≥ 1000 nM; Ki [15]: 53 nM; interaction capability for alpha1b receptors lower than for 5-HT6 receptor [15]: about 2 fold; Ki [16]: ≥ 1000 nM; Ki [20]: ≥ 1000 nM; affinity for rat recombinant 5-HT6 receptor (in words) [21]: high affinity; Ki [22]: ≥ 1000 nM; Ki [23]: ≥ 1000 nM; IC50 [24]: 527 nM; Ki [24]: 0.168 µM; affinity for human recombinant 5-HT7 receptor (in words) [24]: moderate; Ki [25]: ≥ 1000 nM |
| Cc1[nH]c2ccc(Br)cc2c1CCN(C)C [ST 1938, 5-bromo-2-methyl-N,N-dimethyltryptamine] | > 1000 nM | > 1000 nM | > 1000 nM | > 1000 nM | 947 nM | > 1000 nM | > 1000 nM | > 1000 nM | > 1000 nM | 154 nM | > 1000 nM | > 1000 nM | > 1000 nM | > 1000 nM | > 1000 nM | > 1000 nM | 135 to 136 °C | greater than that observed for Serotonin | 62 nM | 32 nM | Ki [26]: > 1000 nM; Ki [27]: > 1000 nM; Ki [28]: > 1000 nM; Ki [29]: > 1000 nM; affinity for rat recombinant 5-HT6 receptor (in words) [21]: high affinity; selectivity of binding for 5-HT6 receptor (in words) [21]: mixed activity for 5-HT6 and 5-HT7 serotonin receptors; Ki [23]: > 1000 nM; Ki [30]: > 1000 nM; IC50 [24]: 158 nM; Ki [24]: 0.047 µM; affinity for human recombinant 5-HT7 receptor (in words) [24]: highest affinity; Ki [31]: > 1000 nM; Ki [25]: > 1000 nM; Ki [32]: > 1000 nM |
| CCc1[nH]c2ccc(Cl)cc2c1CCN(C)C [ST 2253, 5-Chloro-2-ethyl-N,N-dimethyltryptamine] | > 1000 nM | > 1000 nM | > 1000 nM | ≥ 1000 nM | ≥ 1000 nM | ≥ 1000 nM | ≥ 1000 nM | ≥ 1000 nM | ≥ 1000 nM | 84 nM | ≥ 1000 nM | ≥ 1000 nM | > 1000 nM | > 1000 nM | > 1000 nM | > 1000 nM | 188 °C (dec.) | greater than that observed for Serotonin | 52 nM | 26 nM | Ki [8]: ≥ 1000 nM; Ki [15]: 69 nM; interaction capability for alpha1b receptors lower than for 5-HT6 receptor [15]: ~3 fold; Ki [16]: ≥ 1000 nM; Ki [20]: ≥ 1000 nM; affinity for rat recombinant 5-HT6 receptor (in words) [21]: high affinity; selectivity of binding for 5-HT6 receptor (in words) [21]: selective affinity for 5-HT6 receptor; Ki [22]: ≥ 1000 nM; Ki [23]: ≥ 1000 nM; IC50 [24]: > 1000 nM; Ki [24]: > 1 µM; affinity for human recombinant 5-HT7 receptor (in words) [24]: negligible; Ki ([24]; read-out: Affinity (Ki) 5-HT7, Table 2, cell printed in μM): > 1 µM; Ki [31]: > 1000 nM; Ki [25]: ≥ 1000 nM |
| NCCc1c[nH]c2ccc(O)cc12 [Serotonin, reference compound] |  |  |  |  |  |  |  |  |  |  |  |  |  |  |  |  |  |  | 171 nM | 87 nM |  |

— patent US7098233B2 (priority 2001, dated 2006)
